Data: US20120070374A1, “Compounds for Non-Invasive Measurement of Aggregates of Amyloid Peptides” (priority 2009, published 2012)

Target: fibrils of Aβ40 and Aβ42
Assay: Inhibition of N-[^3H-methyl]6-OH-BTA-1 ([^3H]PIB) binding to β-amyloid fibrils, determination of Ki
Parameters: species or system Human
Conditions: radioligand used for Ki calculation; [L] 4 nM
Method: Human Aβ40 and Aβ42 peptides (Bachem) were incubated at 0.5 mg/ml in a solution of 10 mM Na2HPO4, 1 mM EDTA (pH 7.4) at 37° C. for 48 h. The formation of fibrils was confirmed by microscopy and binding of [^3H]6-OH-BTA-1 ([^3H]PIB). Fibrils were either used immediately or aliquoted and subsequently stored at −80° C. until use. Solutions of the test substances (>95% purity according to analytical HPLC) or 6-OH-BTA-1 (>95% purity according to analytical HPLC; ABX Biochemicals, Radeberg, Germany) and N—[^3H-methyl]6-OH-BTA-1 were prepared as 1-10 mM dimethyl sulfoxide (DMSO) stocks before dilution into assay buffer. The maximum final concentration of DMSO in the assays was 1%. All assays were performed in 10 mM Na2HPO4. The incubation was performed at 25° C. for 180 min. The bound and free fractions were separated by vacuum filtration through GF/B glass filters (Whatman, Maidstone, UK) using a Perkin Elmer harvester (PerkinElmer, 96 Micro B Filtermat) followed by 6×0.2 ml washes with ice cold phosphate buffer. Filters containing the bound ligand were counted with a liquid scintillation counter (Wallac Trilux, 1450 Microbeta). […] The inhibition of [^3H]PIB binding was measured for five different concentrations of the test compound in question, performed in duplicates.

## CNc1ccc(-c2nc3ccc(O)cc3s2)cc1 [[^3H]PIB, N-[^3H-methyl]6-OH-BTA-1]
  Kd: 4.2 nM
